Reference: US9656017B2, “Infusion delivery devices and methods” (priority 2014, dated 2017)
No end group written: not given here.

How the values were obtained:
[1] = T1D patients, same immunometric assay (FIG. 1-D); cited from earlier work
[2] = 24-hour plasma profiles of endogenous insulin and amylin in healthy adults, basal/bolus AUC analysis; assay type: in vivo, human; details: for In Vivo AUC pM × 24 hr / AUC: endogenous; for In Vivo AUC pM × 24 hr: molar; for AUC: human, in vivo, In Vivo AUC μg/L × 24 hr, corrected for molecular weight
Source text: This difference in bolus/basal ratios was quantified by estimating the AUCs of the basal and bolus components, which would reflect the 24-hour hormone exposures attributable to these components.
Comparing AUCs results in the discovery that there is a striking difference between hormones with respect to the importance of bolus exposure compared to basal exposure, as summarized in Table 1. […] See the example in Table 1.
Either this is background amylin expression which been reported in non-beta-cell tissues, or it is nonspecific background noise in the amylin assay. […] The same adjustment should also be made for any background insulin plasma levels.
The following calculations are presented as an example of how appropriate amylin agonist doses can be determined. This insulin-dependent dosing can be achieved by calculating two separate components of pramlintide dosing: (1) the weight ratio of the daily basal component of amylin-to-insulin; and (2) the weight ratio of the daily bolus component of amylin-to-insulin.

[3] = Post-injection plasma pramlintide levels for three subcutaneous doses compared with healthy plasma amylin profile; assay type: in vivo, human
Source text: How well do the recommended mealtime injections of pramlintide mimic the healthy plasma amylin profile? […] In the case of three meals per day, these doses would result in three large boluses of pramlintide that spike well above the levels of plasma amylin measured in healthy adults. FIG. 3 superimposes plasma levels of the three subcutaneous doses of pramlintide (FIG. 2) on the plasma amylin profile in healthy adults (FIG. 1).
From an efficacy standpoint, the dose limiting effect of nausea caused by pramlintide plasma spikes reduces daily drug exposure below healthy plasma amylin exposure levels. Daily exposure to endogenous hormone and infused drug can be measured by calculating the areas under the curves (AUCs) in FIG. 3.

[4] = system: test animals; details: treated test animals; e.g. marked hyperlactemia followed by hyperglycemia; cited from earlier work
[5] = ex vivo gram AUC (bioavailability adjusted)
[6] = in vivo gram AUC (molecular weight adjusted)
[7] = plasma, healthy adults, based upon AUCs

For `CC[C@H](C)[C@H](NC(=O)[C@H](C)NC(=O)CNC(=O)[C@H](Cc1ccccc1)NC(=O)[C@H](CC(N)=O)NC(=O)[C@H](CC(N)=O)NC(=O)[C@H](CO)NC(=O)[C@H](CO)NC(=O)[C@H](Cc1c[nH]cn1)NC(=O)[C@@H](NC(=O)[C@H](CC(C)C)NC(=O)[C@H](Cc1ccccc1)NC(=O)[C@H](CC(N)=O)NC(=O)[C@H](C)NC(=O)[C@H](CC(C)C)NC(=O)[C@H](CCCNC(=N)N)NC(=O)[C@H](CCC(N)=O)NC(=O)[C@@H](NC(=O)[C@H](C)NC(=O)[C@@H]1CSSC[C@H](NC(=O)[C@@H](N)CCCCN)C(=O)N[C@@H](CC(N)=O)C(=O)N[C@@H]([C@@H](C)O)C(=O)N[C@@H](C)C(=O)N[C@@H]([C@@H](C)O)C(=O)N1)[C@@H](C)O)C(C)C)C(=O)N[C@@H](CC(C)C)C(=O)N[C@@H](CO)C(=O)N[C@@H](CO)C(=O)N[C@H](C(=O)N[C@@H](CC(N)=O)C(=O)N[C@H](C(=O)NCC(=O)N[C@@H](CO)C(=O)N[C@@H](CC(N)=O)C(=O)N[C@H](C(=O)N[C@@H](Cc1ccc(O)cc1)C(N)=O)[C@@H](C)O)C(C)C)[C@@H](C)O` [Amylin], the “plasma amylin, average” value [1] is given as 1.6 pM, the “In Vivo AUC pM × 24 hr” value ([2]; basal component) is given as 222.79 pM × 24 hr and the “In Vivo AUC pM × 24 hr” value ([2]; bolus component) is given as 135.19 pM × 24 hr. For the same molecule, the “Basal Amylin/Insulin Ratio” value [2, 5] was 14.8%, the “Bolus Amylin/Insulin Ratio” value [2, 5] was 4.8% and the “plasma levels as % of insulin levels” value ([2]; healthy adults, FIG. 8) was “less than 5%”. The AUC ([2]; basal component) was 0.88 ng·h/mL, the AUC ([2]; bolus component) was 0.534 ng·h/mL and the “Basal Amylin/Insulin Ratio” value [2, 6] was 7.4%. The “Bolus Amylin/Insulin Ratio” value [2, 6] was 2.4%, the “Basal Amylin/Insulin Ratio” value ([2]; in vivo molar AUC) was 10.9% and the “Bolus Amylin/Insulin Ratio” value ([2]; in vivo molar AUC) was 3.5%. For the same molecule, the “Basal as % Total” value [2, 7] was 62% and the “Bolus/Basal Ratio” value [2, 7] was 0.6.
For `CC[C@H](C)[C@H](NC(=O)[C@@H]1CCCN1C(=O)CNC(=O)[C@H](Cc1ccccc1)NC(=O)[C@H](CC(N)=O)NC(=O)[C@H](CC(N)=O)NC(=O)[C@H](CO)NC(=O)[C@H](CO)NC(=O)[C@H](Cc1c[nH]cn1)NC(=O)[C@@H](NC(=O)[C@H](CC(C)C)NC(=O)[C@H](Cc1ccccc1)NC(=O)[C@H](CC(N)=O)NC(=O)[C@H](C)NC(=O)[C@H](CC(C)C)NC(=O)[C@H](CCCNC(=N)N)NC(=O)[C@H](CCC(N)=O)NC(=O)[C@@H](NC(=O)[C@H](C)NC(=O)[C@@H]1CSSC[C@H](NC(=O)[C@@H](N)CCCCN)C(=O)N[C@@H](CC(N)=O)C(=O)N[C@@H]([C@@H](C)O)C(=O)N[C@@H](C)C(=O)N[C@@H]([C@@H](C)O)C(=O)N1)[C@@H](C)O)C(C)C)C(=O)N[C@@H](CC(C)C)C(=O)N1CCC[C@H]1C(=O)N1CCC[C@H]1C(=O)N[C@H](C(=O)N[C@@H](CC(N)=O)C(=O)N[C@H](C(=O)NCC(=O)N[C@@H](CO)C(=O)N[C@@H](CC(N)=O)C(=O)N[C@H](C(=O)N[C@@H](Cc1ccc(O)cc1)C(N)=O)[C@@H](C)O)C(C)C)[C@@H](C)O` [pramlintide, 25,28,29Pro-h-amylin], the “24-hour exposure (relative AUC, endogenous amylin = 100%)” value ([3]; 90 μg dose, three meals per day (FIG. 4)) is listed as “achieves the healthy, 24-hour physiological exposure”, the “plasma levels relative to plasma amylin in healthy adults” value ([3]; T1D patients, mealtime SC doses three times daily (FIG. 3)) is listed as “supra-physiological (or pharmacological) plasma levels” and the “amylin activity in vivo” value [4] is listed as “show amylin activity in vivo”.
In the case of Arg18 Pro25 Pro28-h-amylin, the “amylin activity in vivo” value [4] is given as “show amylin activity in vivo”.
For Arg18 Pro25 Pro 28-des-Lys1-h-amylin, the “amylin activity in vivo” value [4] is given as “show amylin activity in vivo”.
In the case of Pro25 Val26 Pro 28 Pro29-h-amylin, the “amylin activity in vivo” value [4] is given as “show amylin activity in vivo”.
For “Pro28-h-amylin (KCNTATCATQRLANFLVHSSNNFGAILPSTNVGSNTY; ends and bridges not checked; cysteine pairing not given here; UniProt P10997 34-70, looked up, variant S28P) [amylin analogue]”, the “amylin activity in vivo” value [4] is given as “show amylin activity in vivo”.
For des-Lys1-h-amylin, the “amylin activity in vivo” value [4] is listed as “show amylin activity in vivo”.
